For orientation: IC50 means the midpoint of a concentration-inhibition curve. One may read the AUC(0-t) as exposure summed from dosing to a finite time, without extrapolation to infinity. The term Cmax denotes the highest concentration seen after dosing. What is called MRT last is the average time that molecules of a dose stay in the body. Broadly, the Tmax is the time from dosing to the highest level.

Each structure is given as a SMILES string. Values joined by “and” are separate entries in the source; they are usually repeats but may differ in a detail not shown here. Equal entries are not always repeated.

A short description of data set [1]: Microsome stability and metabolism studies, rat. It is filed as in vitro ADME. Details: key: +: Metabolic Products Detected In Vitro and In Vivo; ND: Not detectable. The following applies: (−)-AM1 1 μM, at 30 min. Here is the method: Samples from the metabolic stability and metabolism studies were analyzed under the following conditions: UPLC interfaced with a Premiere XE triple Quadrupole Waters for stability studies, and Bruker Daltonics Ion Trap HCT Ultra for metabolic studies. A gradient from 2% to 100% (Water, MeOH, 5 mM Ammonium Acetate) over 2 min (stability) or 12 min (metabolism) in a C18 BEH (dimensions 1 by 50 mm for stability and 2.1 by 100 mm for metabolism, 1.7 µm column, 45 °C temperature, flow rate 0.5 mL/min) was used. For stability studies, the detection was performed in MRM (ESI positive, Q1/Q3 330.16/152.00, Cone Voltage 45 V; Extractor 5 V; Capillary 3.4 kV), while for metabolism studies, analysis was performed in Auto MS/MS mode (ESI positive; Capillary 109 V; Dry Temp 350 °C; Nebulizer 30 psi; Dry gas 10 L/min; HV capillary 500 V; Mass Accu time 500 µs; Mass range MS scan 100–600 amu, MS/MS 50–450 amu).
For stability and metabolism studies, test compounds were dissolved in DMSO, diluted at the final concentration of 1 µM, and pre-incubated in duplicate for 10 min at 37 °C in potassium phosphate buffer, pH 7.4, 3 mM MgCl2, with rat, mouse, and human hepatic microsomes (Xenotech Europe, Pfungstadt, Germany) at the final concentration of 0.5 mg/mL. The reaction was then started by adding the cofactor mixture of NADP, Glc6P, and G6P-DH, in the presence of UDPGA 1 mM in human microsomes to promote glucuronide formation. Acetonitrile (with verapamil as internal standard) was added to the samples at the times time 0 and 30 min to stop the reaction. Samples were then centrifuged and the supernatants analysed and quantified by LC-MS/MS. Reference compounds of known metabolic stability, 7-ethoxycoumarin (7-EC) and propranolol, were used as controls.
The percentage of the area of test compounds remaining after 30 min incubation was calculated in respect to the area of compounds at time = 0 min. […] Samples were re-analyzed by acquiring the daughter scan of the potential metabolites found during the full scan acquisition.

The test system of data set [2] is P. falciparum D10 (CQ-S). Description: Combination with dihydroartemisinin (isobologram), D10. In kind it is cell-based. The following applies: additive activity. As to the method: Figure 2 Isobologram analysis of the antimalarial activity of (−)-AM1 in combination with dihydroartemisinin (DHA) against D10 chloroquine-sensitive (CQ-S) (A) or W2 chloroquine-resistant (CQ-R) (B) P. falciparum strains. […]. DHA fractional IC50 values were calculated by dividing the IC50 of DHA combined with (−)-AM1 or CQ, respectively, by the IC50 of DHA alone, and plotted on the horizontal axis. The corresponding fractional (−)-AM1 or CQ IC50 values were calculated by dividing each fixed concentration by the IC50 of the (−)-AM1 or CQ alone, and plotted on the vertical axis. An isobologram close to the diagonal indicates an additive effect.
The antimalarial activity of (−)-AM1 was assayed in combination with dihydroartemisinin (DHA) against W-2 (CQ-R) or D10 (CQ-S) strains of P. falciparum by potentiation tests as previously described. CQ was used as a control. Isobolograms were constructed by plotting a pair of fractional IC50 values for each combination of (−)-AM1 or CQ with DHA [40].
An isobologram close to the diagonal indicates an additive effect.

A further data set has as its system P. falciparum W-2 (CQ-R). Details: method as in PMID 22901673. The following applies: 72 h incubation, pLDH method, mean of 3 experiments; data already published; cited from earlier work.
Data set [3] is described as follows: Pharmacokinetics in CD-1 mice after oral administration. It is filed as in vivo, mouse. The following applies: male, CD-1, mouse, in vivo, po, 10 mg/kg. Here is the method:
Samples from the pharmacokinetic studies were analyzed under the following conditions: UPLC interfaced with a Premiere XE triple Quadrupole, Waters. A gradient from 2 to 100% (Water, MeOH, 5 mM Ammonium Acetate) over 1.3 min was used in Acquity HSS T3 (dimensions 2.1 by 50 mm, 1.8 µm column, 40 °C temperature, flow rate 0.5 mL/min). Detection was performed in MRM (ESI positive, Q1/Q3 330.16/152.00, Cone Voltage 45 V; Extractor 5 V; Capillary 3.4 kV). The limit of detection was 1 ng/mL. Pharmacokinetic parameters were determined by Non-Compartmental Analysis, using the linear trapezoidal rule and uniform weight.
Pharmacokinetic data were collected in mice by testing the racemate and the enantiomers at the same single dose, and vehicle-utilized for in vivo studies (see composition in paragraph 4.4). Briefly, male CD-1 mice (Charles River Laboratories) weighing 18–22 g received single dose (10 mg/kg) oral administrations of the AM1 racemate and single enantiomers, each dissolved in SSV. For each experiment, twenty-four mice/dose and three mice/time-point were used. Blood samples were collected at eight selected time-points (15, 30 and 60 min; 2, 4, 6, 8 and 24 h) under ethyl ether anaesthesia. The heparinized tubes containing blood samples were immediately placed on ice and centrifuged, and the supernatant collected and frozen at −80 °C prior to analysis. Pharmacokinetic plasma samples (spiked with internal standard) were filtered (Sirocco filter plate, Waters) under vacuum, and 5 µL analysed by LC-MS/MS.

In data set [4] the test system is P. falciparum D10 (CQ-S). Further details: method as in PMID 22901673. The following applies: 72 h incubation, pLDH method, mean of 3 experiments; data already published; cited from earlier work.
For the next data set, the system named is P. berghei. Description: Prophylactic test, P. berghei/A. stephensi model. It is filed as in vivo. The following applies: 50 mg/kg per os for 4 days, infection by mosquito bites, days 5–9 post-infection. As to the method:
(−)-AM1 was also tested in transmission-blocking and prophylactic studies using the P. berghei/A. stephensi model as described, with a few modifications.
For the prophylactic test, the experimental drugs were administered at 50 mg/kg per os for 4 consecutive days; 90 min after the last administration, mice were infected by 6–10 infective mosquito bites. Thick and thin Giemsa-stained smears were prepared and examined on days 5–10 post-infection to assess parasite density per μL of blood.

In data set [5] the test system is P. falciparum TM91C235 (multidrug-resistant). Description: In vitro chemosensitivity assay (pLDH), TM91C235 strain. It is filed as cell-based. The settings on record: Plasmodium falciparum; 72 h incubation, pLDH method, mean of 3 experiments; read-out: P. falciparum IC50, TM91C235.

As to `Clc1ccc2c(NC[C@@H]3CCCN4CCCC[C@H]34)ccnc2c1` [(−)-AM1, 7-chloro-N-(((1S,9aR)-octahydro-1H-quinolizin-1-yl)methyl)quinolin-4-amine], in data set [1], the “Metabolic products detected, in vitro microsomes, rat” value was “+”. The “FIC in combination with DHA” value with P. falciparum D10 (CQ-S) [2] is below 2. The IC50 with P. falciparum W-2 (CQ-R) was 53.7 nM. Besides, in data set [3], the AUC(0-t) is 0.313 µM·h and 103 ng·h/mL; the Cmax is 84 nM and 27.6 ng/mL; the mean residence time (MRT last) was 3.33 h; the time to peak (Tmax) is 15 min. The 50% inhibitory concentration (IC50) in the data set on P. falciparum D10 (CQ-S) [4] is 24 nM. The “parasitaemia versus control mice, prophylactic activity” value in the data set with P. berghei is on record as “no significant differences in parasitaemia”. The half-inhibitory concentration (IC50) in data set [5] was 16.7 nM.
